Data set [1] in a line: Drug concentration in Wistar rat plasma at 10 mg/kg, po measured after 30 mins by LC-MS/MS method. It is filed as ADME, organism-based.
Data set [2] is described as follows: Drug concentration in Wistar rat brain at 10 mg/kg, po measured after 30 mins by LC-MS/MS method. Type of data set: ADME, organism-based. The conditions noted are these: in vivo, 0.5 h.

`CN(C)c1cnn2ccc(N3CCOCC3)nc12`: in data set [1], the concentration at 0.5 h is greater than 2000 nM. Besides, the Drug uptake result in data set [2] was “Active”.
